{
  "source": "ChEMBL document CHEMBL4130537",
  "about": "“Houttuynoid M, an Anti-HSV Active Houttuynoid from Houttuynia cordata Featuring a Bis-houttuynin Chain Tethered to a Flavonoid Core” (J Nat Prod, 2017)",
  "key": {"[1]": {"tested_on": "Human alphaherpesvirus 1", "test": "Antiviral activity against HSV1/F infected in African green monkey Vero cells assessed as inhibition of plaque formation after 24 hrs by crystal violet staining-based assay", "format": "functional, organism-based", "details": "Human alphaherpesvirus 1, strain F"}, "[2]": {"test": "Selectivity index, ratio of CC50 for African green monkey Vero cells to IC50 for HSV1/F", "format": "toxicity", "details": "read-out: Ratio CC50/IC50"}, "[3]": {"test": "Cytotoxicity against African green monkey Vero cells assessed as decrease in cell viability after 24 hrs by CellTiter-Glo luminescent assay", "format": "cell-based", "details": "chlorocebus sabaeus"}},
  "data": [
    {"smiles": "Nc1nc2c(ncn2COCCO)c(=O)[nH]1", "note": "[ACYCLOVIR]", "values": [
      {"measurement": "IC50", "setting": "[1]", "value": 0.15, "unit": "µM"},
      {"measurement": "selectivity ratio", "setting": "[2]", "value": "> 1330"},
      {"measurement": "CC50 at 24 h", "setting": "[3]", "value": "> 200", "unit": "µM"}
    ]},
    {"smiles": "CCCCCCCCCC(=O)/C=C/c1c(CCCCCCCCC)oc2c(O)ccc(-c3oc4cc(O)cc(O)c4c(=O)c3O[C@@H]3O[C@H](CO)[C@H](O)[C@H](O)[C@H]3O)c12", "values": [
      {"measurement": "IC50", "setting": "[1]", "value": 17.7, "unit": "µM"},
      {"measurement": "selectivity ratio", "setting": "[2]", "value": "> 11.3"},
      {"measurement": "CC50 at 24 h", "setting": "[3]", "value": "> 200", "unit": "µM"}
    ]},
    {"smiles": "CCCCCCCCCc1oc2c(O)ccc(-c3oc4cc(O)cc(O)c4c(=O)c3O[C@@H]3O[C@H](CO)[C@H](O)[C@H](O)[C@H]3O)c2c1C=O", "values": [
      {"measurement": "IC50", "setting": "[1]", "value": 12.4, "unit": "µM"},
      {"measurement": "selectivity ratio", "setting": "[2]", "value": "> 16.1"},
      {"measurement": "CC50 at 24 h", "setting": "[3]", "value": "> 200", "unit": "µM"}
    ]}
  ]
}
